Measurements: US11090292B2, “Compositions and methods of use of an inappetance-controlling compound” (Aratana Therapeutics, Inc., priority 2012, dated 2021)

What was measured:
[1] = tested on: growth hormone (GH); assay: Example 1: serum GH concentration; type: in vivo, Beagle dogs; settings: once-daily 6 mg/kg or twice-daily 3 mg/kg, approximately 0.5 h after dosing, days 1, 2, 4, 7
Description: A controlled, seven-day study was performed to assess the impact of different capromorelin-dosing regimens on the production of insulin-like growth factor 1 (hereinafter “IGF-1”), growth hormone (hereinafter “GH”), and cortisol. The different capromorelin-dosing regimens were also assessed for the impact on food intake and changes in body mass.
Eighteen adult non-naïve Beagle dogs (nine males and nine females) were divided into one of three treatment groups. Each of the three treatment groups included three males and three females. Group A, which was the control group, was dosed twice per day, via oral gavage, with a vehicle (deionized water alone) and was used as a baseline data point for comparison against the active treatment regimens. Group B comprised an active treatment group that received two treatments per day, via oral gavage, with a capromorelin-containing composition with a concentration of 3 mg/kg capromorelin per treatment. Finally, Group C comprised an active treatment group that received one treatment per day, via oral gavage, with a capromorelin-containing composition with a concentration of 6 mg/kg capromorelin per treatment.
During the ten day study period, on an at least once-daily basis, each of the dogs was monitored for clinical observations, mortality, morbidity, body mass, and food consumption. […]

[2] = Example 9: capromorelin concentration in serum; type: in vivo
Description: A four-day study was performed to further assess the pharmacokinetics of formulation 8 from Example 3 (i.e., the most “well-accepted” formulation) in cats. Moreover, the administration of formulation 8 was also analyzed to determine if administration of this formulation could induce sustained production of IGF-1 and relatively depressed, mitigated, or lower levels of cortisol. The different capromorelin-dosing regimens were also assessed for the impact on food intake and changes in body mass.
Twenty-four adult cats were divided into one of four treatment groups, with all four groups as active treatment groups. Each of the active treatment groups included 6 cats. The first group received a sterile injection of a capromorelin composition containing a 0.75 mg/kg concentration of capromorelin once per day during the four-day experiment. The second group received a once-daily sterile injection of a capromorelin composition at a concentration of 2 mg/kg. The third group received a once-daily dose of a capromorelin composition at a concentration of 2 mg/kg, via oral gavage. […]
During the seven day study period, on an at least once-daily basis, each of the cats was monitored for clinical observations, mortality, moribundity, body mass, acceptability/palatability, and food consumption. […]

[3] = Example 13: serum capromorelin and pharmacokinetics; type: in vivo, cats with compromised kidney function
Description: The following study was undertaken to assess multiple points. First, the following experiments were conducted to determine if a formulation of capromorelin, when administered either intravenously or subcutaneously, can stimulate appetite in cats with compromised kidney function. Second, the following experiments were conducted to assess the pharmacokinetic profile of capromorelin in the serum of cats with compromised kidney function. Finally, the following experiments were conducted to determine if capromorelin accumulates in the serum after 14 days of treatment that is subcutaneously administered. Sixteen cats with compromised kidney function were acclimatized for the following study. Animals assigned to Group 1 (n=6) received an intravenous administration of a capromorelin formulation (i.e., capromorelin in sterile water) at a dose of 0.75 mg/kg on Day 0 of the experiment. Animals assigned to Group 2 (n=6) received a subcutaneous administration of a capromorelin formulation (2.1% w/v capromorelin, 1% w/v benzyl alcohol, and citrate buffer) daily for 14 days at a dose of 2 mg/kg. Animals assigned to Group 3 (n=4) served as untreated controls. During the study, blood samples were taken from the Group 1 animals at time points 0 (pre-administration), 5 minutes, 10 minutes, 30 minutes, 1 h, 2 h, 4 h, 6 h, 8 h, and 12 h post administration on Day 0. Blood samples were taken from the Group 2 animals at time points 0 (pre-administration), 15 minutes, 30 minutes, 45 minutes, 1 h, 2 h, 4 h, 6 h, 8 h, and 12 h post administration on Day 0 and time points 0, 30 minutes, 1 h, 2 h, 4 h, and 8 h post administration on Day 13. In addition, body weights were collected on study days −7, −1, and 13 (for Groups 2 and 3 only). Diet consumption was also monitored on study days −7 until day 13 for the animals in Groups 2 and 3 only. Referring to FIGS. 116 and 118, the pharmacokinetics of subcutaneously administered capromorelin were also determined. […] In addition, the mean fraction of the dose absorbed was determined by dividing the mean area under the curve (AUC)/dose of the animals in Group 2, which was divided by AUC/dose of the animals in Group 1. In this case, the mean fraction of the dose (F) absorbed is 1.37.

[4] = Group 1, intravenous 0.75 mg/kg, Day 0
[5] = Group 2, subcutaneous 2 mg/kg daily, Day 13
[6] = Group 2, subcutaneous 2 mg/kg, Day 0

CN1N=C2CCN(C(=O)[C@@H](COCc3ccccc3)NC(=O)C(C)(C)N)C[C@@]2(Cc2ccccc2)C1=O.O=C(O)C(O)C(O)C(=O)O [capromorelin]
GH levels in the serum after dosing [1]: marked increase | levels of capromorelin in the serum ([2]; oral formulations): relatively low levels of capromorelin in the serum | time post administration of peak capromorelin concentration in the serum ([2]; sterile injectable formulation): about 0.5 h | serum concentration of capromorelin at the spike [3, 4]: about 397 ng/mL | time post-administration of initial spike of serum capromorelin [3, 4]: about 5 minutes | mean absorption time ([3]; Group 2, subcutaneous 2 mg/kg): 0.4 h | accumulation in the serum after 14 days of treatment ([3]; Group 2, subcutaneous 2 mg/kg daily): does not accumulate | serum concentration of capromorelin at the spike [3, 5]: about 950 ng/mL | time post administration of spike in serum capromorelin [3, 5]: 30 min | serum concentration of capromorelin at the spike [3, 6]: about 833 ng/mL | time post-administration of initial spike of serum capromorelin [3, 6]: about 15 minutes | Cmax ([3]; cat, serum, sc, Group 2, subcutaneous 2 mg/kg, read-out: geometric Cmax): 893 ng/mL | clearance ([3]; cat, serum, Group 1, intravenous 0.75 mg/kg, several of the test animals): 20 mL/min/kg | half-life ([3]; cat, serum, Group 1, intravenous 0.75 mg/kg, read-out: terminal half-life): 40.2 to 54 min | mean fraction of the dose (F) absorbed ([3]; subcutaneous AUC/dose (Group 2) divided by intravenous AUC/dose (Group 1)): 1.37
